Results on 8 compounds are retold here after ChEMBL document CHEMBL4342421, “Current scenario of tetrazole hybrids for antibacterial activity” (Eur J Med Chem, 2019).

In brackets after ≈: the same amount, converted by molar mass.

In one assay the test system is Proteus vulgaris. The assay can be described thus: Antimicrobial activity against Proteus vulgaris. The class given is functional.
Assay [1] has as its system Staphylococcus aureus. The assay can be described thus: Antimicrobial activity against Staphylococcus aureus. Type of assay: functional.
The test system of the next assay is Enterococcus faecalis. Briefly: Antimicrobial activity against Enterococcus faecalis. Type of assay: functional.
Another assay concerns Nakaseomyces glabratus. Briefly: Antifungal activity against Candida glabrata. Type of assay: functional.
A further assay deals with Listeria monocytogenes. Briefly: Antimicrobial activity against Listeria monocytogenes. Type of assay: functional.
The subject of assay [2] is Pseudomonas aeruginosa. Briefly: Antimicrobial activity against Pseudomonas aeruginosa. The class given is functional.
Assay [3] has as its system Escherichia coli. Briefly: Antimicrobial activity against Escherichia coli. The class given is functional.
The test system of the next assay is Candida tropicalis. Briefly: Antifungal activity against Candida tropicalis. The class given is functional.
The subject of another assay is Salmonella typhimurium. The assay can be described thus: Antimicrobial activity against Salmonella typhimurium. The class given is functional, Salmonella enterica subsp. enterica serovar Typhimurium. The following applies: Salmonella enterica.
The subject of assay [4] is Bacillus subtilis. Briefly: Antimicrobial activity against Bacillus subtilis. Type of assay: functional.
The subject of the next assay is Candida albicans. Briefly: Antifungal activity against Candida albicans. Type of assay: functional.
Assay [5] has as its system Klebsiella pneumoniae. Briefly: Antimicrobial activity against Klebsiella pneumoniae. Type of assay: functional.
In assay [6] the test system is Pseudomonas aeruginosa. The assay can be described thus: Antimicrobial activity against Pseudomonas aeruginosa assessed as zone of inhibition at 5 mg/ml after 24 to 48 hrs by well diffusion method. Type of assay: functional. The note with it: read-out: IZ.
Assay [7] concerns Bacillus subtilis. Briefly: Antimicrobial activity against Bacillus subtilis assessed as zone of inhibition at 5 mg/ml after 24 to 48 hrs by well diffusion method. The class given is functional. The note with it: read-out: IZ.
Assay [8] relates to Staphylococcus aureus. Briefly: Antimicrobial activity against Staphylococcus aureus assessed as zone of inhibition at 5 mg/ml after 24 to 48 hrs by well diffusion method. The class given is functional. The following applies: read-out: IZ.
The test system of assay [9] is Escherichia coli. The assay can be described thus: Antimicrobial activity against Escherichia coli assessed as zone of inhibition at 5 mg/ml after 24 to 48 hrs by well diffusion method. The following applies: read-out: IZ. Type of assay: functional.
For a further assay, the system named is Pichia kudriavzevii. Briefly: Antifungal activity against Candida krusei.
Assay [10] relates to Escherichia coli. The assay can be described thus: Antimicrobial activity against Escherichia coli assessed as zone of inhibition at 0.001 mol/cm3. The class given is functional.
The subject of assay [11] is Staphylococcus aureus. The assay can be described thus: Antimicrobial activity against Staphylococcus aureus assessed as zone of inhibition at 0.001 mol/cm3. Type of assay: functional.
Another assay has as its system Bacillus cereus. The assay can be described thus: Antimicrobial activity against Bacillus cereus assessed as zone of inhibition at 0.001 mol/cm3. Type of assay: functional.
In assay [12] the test system is Staphylococcus epidermidis. Briefly: Antimicrobial activity against Staphylococcus epidermidis. Type of assay: functional.
Assay [13] deals with Proteus mirabilis. Briefly: Antimicrobial activity against Proteus mirabilis. Type of assay: functional.
The next assay has as its system Aspergillus niger. The assay can be described thus: Antifungal activity against Aspergillus niger. The class given is functional.
For a further assay, the system named is Talaromyces marneffei. The assay can be described thus: Antifungal activity against Penicillium marneffei after 3 to 4 days. The class given is functional.
The test system of assay [14] is Pseudomonas aeruginosa. Briefly: Antimicrobial activity against Pseudomonas aeruginosa after 24 hrs by agar disk diffusion method. Type of assay: functional.
For assay [15], the system named is Klebsiella pneumoniae. The assay can be described thus: Antimicrobial activity against Klebsiella pneumoniae after 24 hrs by disc diffusion method. The class given is functional.
In assay [16] the test system is Pseudomonas aeruginosa. The assay can be described thus: Antimicrobial activity against Pseudomonas aeruginosa ATCC 27853 after 24 hrs by disc diffusion method. The note with it: ATCC 27853, 24 h. Type of assay: functional.
Assay [17] relates to Escherichia coli. Briefly: Antimicrobial activity against Escherichia coli ATCC 25922 after 24 hrs by disc diffusion method. Type of assay: functional. The note with it: ATCC 25922, 24 h.
Assay [18] has as its system Proteus mirabilis. Briefly: Antimicrobial activity against Proteus mirabilis after 24 hrs by agar disk diffusion method. Type of assay: functional.
Assay [19] relates to Staphylococcus aureus. The assay can be described thus: Antimicrobial activity against Staphylococcus aureus ATCC 25923 after 24 hrs by disc diffusion method. Type of assay: functional. The note with it: ATCC 25923, 24 h.
The subject of assay [20] is Trichophyton mentagrophytes. Briefly: Antifungal activity against Trichophyton mentagrophytes after 3 to 4 days. The class given is functional.
Assay [21] has as its system Klebsiella pneumoniae. The assay can be described thus: Antimicrobial activity against Klebsiella pneumoniae after 24 hrs by agar disk diffusion method. The class given is functional.
The test system of the next assay is Aspergillus fumigatus. The assay can be described thus: Antifungal activity against Aspergillus fumigatus NCIM 902 after 3 to 4 days. Type of assay: functional.
For assay [22], the system named is Escherichia coli. The assay can be described thus: Antimicrobial activity against Escherichia coli after 24 hrs by agar disk diffusion method. Type of assay: functional.
A further assay has as its system Aspergillus flavus. Briefly: Antifungal activity against Aspergillus flavus NCIM 524 after 3 to 4 days. The class given is functional.

In the case of `Cn1c(-c2ccc(NC(=O)CSc3nnnn3-c3ccccc3)cc2)nc2cc(Cl)c(Cl)cc21`, the MIC in the assay on Proteus vulgaris, against Staphylococcus aureus [1], in the assay with Enterococcus faecalis, against Nakaseomyces glabratus, in the assay with Listeria monocytogenes and in the assay with Pseudomonas aeruginosa [2] was 12.5 to 400 µg/mL (≈ 24.5 to 784 µM) in each case. Further, the MIC in the assay with Escherichia coli [3], against Candida tropicalis, with Salmonella typhimurium, with Bacillus subtilis [4], in the assay with Candida albicans and against Klebsiella pneumoniae [5] was 12.5 to 400 µg/mL (≈ 24.5 to 784 µM) in each case.
Consider `Cc1c(-c2cc(-c3ccc(-c4cc(-c5cnn(-c6ccccc6)c5C)n5nnnc5n4)cc3)nc3nnnn23)cnn1-c1ccccc1`, for which the zone of inhibition at 5000 µg/mL in the assay on Pseudomonas aeruginosa [6], in the assay with Bacillus subtilis [7], with Staphylococcus aureus [8] and in the assay with Escherichia coli [9] was 8.1 to 9.9 mm in each case.
Take `Fc1cc2[nH]c(SCc3ccc(-c4ccccc4-c4nnnn4C(c4ccccc4)(c4ccccc4)c4ccccc4)cc3)nc2cc1-n1cncn1`: the minimal inhibitory concentration (MIC) against Staphylococcus aureus [1], in the assay with Pichia kudriavzevii, with Nakaseomyces glabratus, against Pseudomonas aeruginosa [2], with Escherichia coli [3] and in the assay with Candida tropicalis was 16 to 64 µg/mL (≈ 22.5 to 89.9 µM) in each case. Moreover, the MIC against Bacillus subtilis [4] and in the assay on Candida albicans was 16 to 64 µg/mL (≈ 22.5 to 89.9 µM) in each case.
Take `Cc1c(-c2cc(-c3ccccc3)nc3nnnn23)cnn1-c1ccccc1`: the zone of inhibition at 5000 µg/mL with Pseudomonas aeruginosa [6], with Bacillus subtilis [7], with Staphylococcus aureus [8] and in the assay on Escherichia coli [9] was 13.7 to 18.6 mm each time.
For the compound `CCOC(=O)c1c(-n2cnnn2)sc(C(=O)c2ccccc2)c1C`, the “inhibition zone (IZ)” value in the assay on Escherichia coli [10], with Staphylococcus aureus [11] and in the assay on Bacillus cereus was 22 - 24 mm each time.
With `COc1ccc(C2=NN(C(N)=S)C(c3cc4cc(C)ccc4n4nnnc34)C2)cc1` (stereo not drawn), the MIC (in the assay on Staphylococcus aureus [1]; in assay [12]; against Pseudomonas aeruginosa [2]; with Escherichia coli [3]; with Proteus mirabilis [13]; against Aspergillus niger) was 3.12 to 25 µg/mL (≈ 7.49 to 59.9 µM) throughout. For the same compound, in the assay on Candida albicans, the MIC is 3.12 to 25 µg/mL (≈ 7.49 to 59.9 µM).
As for `c1ccc(Cn2nnnc2SCCCSc2nnnn2-c2ccccc2)cc1`, the MIC in the assay with Talaromyces marneffei was 6.25 to 50 µg/mL (≈ 15.2 to 122 µM); against Pseudomonas aeruginosa [14] it was 6.25 µg/mL (≈ 15.2 µM); in the assay with Klebsiella pneumoniae [15] it was 6.25 to 50 µg/mL (≈ 15.2 to 122 µM); in the assay with Pseudomonas aeruginosa [16] it was 6.25 to 50 µg/mL (≈ 15.2 to 122 µM); with Escherichia coli [17], 6.25 to 50 µg/mL (≈ 15.2 to 122 µM); in the assay with Proteus mirabilis [18], 6.25 µg/mL (≈ 15.2 µM). The MIC was 6.25 to 50 µg/mL (≈ 15.2 to 122 µM) against Staphylococcus aureus [19]; 6.25 to 50 µg/mL (≈ 15.2 to 122 µM) in assay [20]; 6.25 µg/mL (≈ 15.2 µM) in the assay on Klebsiella pneumoniae [21]; 6.25 to 50 µg/mL (≈ 15.2 to 122 µM) in the assay with Aspergillus fumigatus; 6.25 µg/mL (≈ 15.2 µM) against Escherichia coli [22]; 6.25 to 50 µg/mL (≈ 15.2 to 122 µM) against Aspergillus flavus.
Turning to `c1ccc(-n2nnnc2SCCCSc2nnnn2C2CC2)cc1`, the MIC (against Talaromyces marneffei; against Klebsiella pneumoniae [15]; against Pseudomonas aeruginosa [16]; in the assay with Escherichia coli [17]; with Staphylococcus aureus [19]; in [20]) was 6.25 to 50 µg/mL (≈ 17.3 to 139 µM) each time. In addition, the MIC in the assay on Aspergillus fumigatus and in the assay with Aspergillus flavus was 6.25 to 50 µg/mL (≈ 17.3 to 139 µM) each time.
